Results from patent publication US10420844B2, “Peptide pharmaceuticals” (Mederis Diabetes LLC, priority 2011, dated 2019).

How the values were obtained:
mu opioid receptor = target: T1, mu opioid receptor (Homo sapiens, UniProt P35372); experiment: mu opioid receptor cellular assay (MOP, agonist and antagonist mode), cAMP readout, Cerep; type: cell-based
T1 construct: Cerep SA (contract research organization)
Experimental: (§1) Compounds were weighed precisely in an amount of approximately 2 mg and assayed in standard cellular assays by the contract research organization Cerep, Inc. (Pullman, Wash.) as executed at their subsidiary, Cerep SA (Le Bois l'Eveque, France). The readout is the amount of cAMP generated in the cells treated with the test compounds, in either agonist or antagonist mode. The assays used were the mu opioid receptor cellular assay (MOP in agonist and antagonist mode), the delta2 opioid receptor cellular assay (DOP in agonist and antagonist mode) and the kappa opioid receptor cellular assay (KOP in agonist and antagonist mode). The assays used are described in Wang, J. B., et al. (1994) FEBS Lett 338: 217-222, Law, P. Y. and Loh, H. H. (1993) Mol Pharmacol 43: 684-693, and Avidor-Reiss, T., et al. (1995) FEBS Lett 361: 70-74. The stimulant for the cells in the DOR antagonist assay was 3×10E-8M DPDPE, a well-accepted DOR literature standard.

delta2 opioid receptor = target: T2, delta2 opioid receptor (Mus musculus, UniProt P32300); experiment: delta2 opioid receptor cellular assay (DOP, agonist and antagonist mode), cAMP readout, Cerep; type: cell-based; details: in competition with 30 nM DPDPE
T2 construct: Cerep SA (contract research organization)
T2 sequence (P32300 whole entry): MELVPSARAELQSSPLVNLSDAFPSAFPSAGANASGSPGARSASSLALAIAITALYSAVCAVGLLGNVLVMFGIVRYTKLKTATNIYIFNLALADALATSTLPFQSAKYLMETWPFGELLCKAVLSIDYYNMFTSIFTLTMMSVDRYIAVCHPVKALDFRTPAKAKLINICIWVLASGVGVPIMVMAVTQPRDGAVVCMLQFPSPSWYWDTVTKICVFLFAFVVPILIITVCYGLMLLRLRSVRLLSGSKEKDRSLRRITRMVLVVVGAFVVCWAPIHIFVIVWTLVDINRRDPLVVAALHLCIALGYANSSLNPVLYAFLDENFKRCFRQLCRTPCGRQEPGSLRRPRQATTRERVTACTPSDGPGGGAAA
Experimental: as §1

T1 sequence (P35372 whole entry): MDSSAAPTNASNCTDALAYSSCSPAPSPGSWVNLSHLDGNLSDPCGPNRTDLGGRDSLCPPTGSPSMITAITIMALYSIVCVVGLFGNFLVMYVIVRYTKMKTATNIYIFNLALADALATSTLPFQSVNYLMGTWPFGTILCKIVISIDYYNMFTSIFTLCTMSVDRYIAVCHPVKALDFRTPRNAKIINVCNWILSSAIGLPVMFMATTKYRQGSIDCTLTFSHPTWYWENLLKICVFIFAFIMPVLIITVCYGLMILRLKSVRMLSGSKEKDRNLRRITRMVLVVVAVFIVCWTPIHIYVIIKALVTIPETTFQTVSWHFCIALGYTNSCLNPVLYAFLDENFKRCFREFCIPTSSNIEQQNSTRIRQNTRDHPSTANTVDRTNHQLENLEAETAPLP

“2′,6′-dimethyl-L-tyrosyl-L-1,2,3,4-tetrahydroisoquinoline-3-carbonyl-L-phenylalanyl-Nε-(1′-methyl R-D-glucuronyl)-L-lysyl-amide [EU-A178]” was tested, and the “behavior in the MOP agonist assay (FIG. 11)” value (mu opioid receptor) was “potent, full agonistic behavior”, the Characterization (mu opioid receptor; MOP agonist mode and DOP antagonist mode) was “Pure MOP Ag; pure DOP antag” and the “action on the DOP receptor (FIG. 11)” value (delta2 opioid receptor) was “highly potent action as a pure antagonist”.
